The text below walks through data of patent publication US8178506B2, “Oligomeric compounds and compositions for use in modulation of small non-coding RNAs” (Regulus Therapeutics Inc., priority 2003, dated 2012).

Values joined by “and” are separate entries in the source; they are usually repeats but may differ in a detail not shown here. Equal entries are not always repeated. In the oligonucleotide strings, read from the 5' end, every base follows the letter of its sugar. An asterisk marks phosphorothioate; unmarked linkages are phosphodiester. Other units and linkages are bracketed, terminal groups are in braces. A string of capitals states the bases alone. e = 2'-O-(2-methoxyethyl) (MOE); [5mC] = 5-methylcytosine; d = 2'-deoxy (DNA)

Holding throughout (type): cell-based, human
One data set has as its system preadipocytes. Description: Caspase assay in preadipocytes. The note with it: for Fold Increase over UTC (caspase activity): untreated control set equal to 1.0. An excerpt:
The effect of oligomeric compounds of the present invention targeting miRNAs was examined in preadipocytes (Zen-Bio, Inc., Research Triangle Park, N.C.) using the fluorometric caspase assay previously described in Example 11.

The subject of data set [1] is differentiated adipocytes. The experiment in a line: Hallmark genes and triglycerides in differentiated adipocytes. The note with it: Table 28; differentiated adipocytes transfected day nine post-differentiation; 250 nM oligonucleotide. An excerpt:
The effect of the oligomeric compounds of the present invention targeting miRNAs on the expression of markers of cellular differentiation was examined in differentiated adipocytes.
As previously described, the HSL, aP2, Glut4, and PPARγ genes play important rolls in the uptake of glucose and the metabolism and utilization of fats. Also as previously described, an increase in triglyceride content is another well-established marker for adipocyte differentiation. Human white preadipocytes (Zen-Bio Inc., Research Triangle Park, N.C.) were grown in preadipocyte media (ZenBio Inc.). After the cells reached confluence (approximately three days), they were exposed to differentiation media (Zen-Bio, Inc.) containing a PPAR-γ agonist, IBMX, dexamethasone, and insulin for three days. Cells were then fed Adipocyte Medium (Zen-Bio, Inc.), which was replaced at 2 to 3 day intervals. One day before transfection, 96-well plates were seeded with 3000 cells/well. Cells were then transfected on day nine post-differentiation, according to standard published procedures with 250 nM oligonucleotide in LIPOFECTIN™ (Invitrogen Corporation, Carlsbad, Calif.) (Monia et al., J. Biol. Chem. 1993 268(19):14514-22). Oligomeric compounds were tested in triplicate on each 96-well plate, and the effect of TNF-α, known to inhibit adipocyte differentiation, was also measured in triplicate. Oligomeric compound treatments and transfectant-only negative controls may be measured up to six times per plate. On day twelve post-differentiation, cells were washed and lysed at room temperature, and the expression of the four hallmark genes, HSL, aP2, Glut4, and PPARγ, as well as triglyceride (TG) accumulation were measured in adipocytes transfected with the uniform 2′-MOE phosphorothioate (PS) previously described in Example 13 as well as the chimeric gapmer oligomeric compounds targeting the mir-143 miRNA and the mir-143 pri-miRNA described in Example 16. On day twelve post-differentiation, cells were lysed in a guanadinium-containing buffer and total RNA was harvested. The amount of total RNA in each sample was determined using a Ribogreen Assay (Molecular Probes, Eugene, Oreg.). Real-time PCR was performed on the total RNA using primer/probe sets for the adipocyte differentiation hallmark genes Glut4, HSL, aP2, and PPARγ. Triglyceride levels as well as mRNA levels for each of the four adipocyte differentiation hallmark genes are expressed relative to control levels (control=treatment with ISIS-29848 (SEQ ID NO: 737)).

A further data set deals with HeLa cells. The experiment in a line: Cell cycle assay in HeLa cells. The note with it: HeLa cells, 150 nM oligomeric compound; for % cells aneuploid / % cells in cell cycle phase G1 / % cells in cell cycle phase G2/M / % cells in cell cycle phase S / % cells in cell cycle phase subG1: 24 hours, relative to untreated control (UTC = 100); for % cells in cell cycle phase: G1 / % cells in cell cycle phase: G2/M / % cells in cell cycle phase: S / % cells in cell cycle phase: aneuploid / % cells in cell cycle phase: subG1: 48 hours after treatment, relative to untreated control (UTC=100).

For the substance “327888 (antisense eA*eA*eT*eG*e[5mC]*e[5mC]*e[5mC]*e[5mC]*eT*eA*eA*eA*eA*eA*eT*e[5mC]*e[5mC]*eT*eT*eA*eT) [compound 327888]”, the “Fold Increase over UTC (caspase activity)” value (“Fold Increase over UTC” below) in the data set with preadipocytes is reported as 1.1 fold over UTC. In data set [1], this substance registered a Glut4 of 0.56, an HSL of 0.84, a PPAR gamma of 1.69 and a TG of 1.13. The same substance registered an aP2 in data set [1] of 0.73.

Regarding “TGAGCTACAGTGCTTCATCTCA [ISIS 327901] (chemistry not given here) [uniform 2′-MOE PS; targets mir-143]”, in the data set with preadipocytes, the caspase activity result is “does not result in a significant increase in caspase activity”.

“327933 (antisense eA*eA*eG*eG*eG*eA*eT*eT*e[5mC]*e[5mC]*eT*eG*eG*eG*eA*eA*eA*eA*e[5mC]*eT*eG*eG*eA*e[5mC]) [compound 327933]”: in the data set with HeLa cells, the “% cells aneuploid” value is 92% and 47%; the “% cells in cell cycle phase G1” value was 102% and 90%; the “% cells in cell cycle phase G2/M” value was 131% and 140%; the “% cells in cell cycle phase S” value was 83% and 91%. In addition, in the data set on HeLa cells, the “% cells in cell cycle phase subG1” value was 192% and 190%; the “% cells in cell cycle phase: G1” value was 76% and 80%; the “% cells in cell cycle phase: G2/M” value was 138% and 123%; the “% cells in cell cycle phase: S” value was 135% and 133%. In the data set with HeLa cells, the “% cells in cell cycle phase: aneuploid” value was 86% and 75%. Besides, in data set [1], the Glut4 was determined as 2.12, the HSL amounted to 1.30, the PPAR gamma is listed as 1.60 and the TG was found to be 1.63. In addition, in data set [1], the aP2 amounted to 1.58.

As for “327878 (antisense e[5mC]*eT*eA*eG*eT*eG*eG*eT*e[5mC]*e[5mC]*eT*eA*eA*eA*e[5mC]*eA*eT*eT*eT*e[5mC]*eA*e[5mC]) [compound 327878]”, in the data set with HeLa cells, the “% cells aneuploid” value was determined as 73%, the “% cells in cell cycle phase G1” value is reported as 96%, the “% cells in cell cycle phase G2/M” value was 122% and the “% cells in cell cycle phase S” value amounted to 94%. In the data set with HeLa cells, the “% cells in cell cycle phase subG1” value was 124%, the “% cells in cell cycle phase: G1” value is given as 89%, the “% cells in cell cycle phase: G2/M” value is reported as 114% and the “% cells in cell cycle phase: S” value worked out at 119%. For the same substance, in the data set with HeLa cells, the “% cells in cell cycle phase: aneuploid” value worked out at 92% and the “% cells in cell cycle phase: subG1” value is listed as 50%. In addition, in data set [1], the Glut4 turned out to be 0.17, the HSL is 0.19, the PPAR gamma is reported as 0.85 and the TG is 1.08. In addition, the aP2 in data set [1] was 0.13.

In the case of “328382 (e[5mC]*eA*eG*eA*e[5mC]*dT*d[5mC]*d[5mC]*d[5mC]*dA*dA*d[5mC]*dT*dG*dA*e[5mC]*e[5mC]*eA*eG*eA) [compound 328382]”, in the data set with HeLa cells, the “% cells in cell cycle phase G1” value is 118% and 102%; the “% cells in cell cycle phase G2/M” value is 116% and 144%; the “% cells in cell cycle phase S” value is 76% and 80%; the “% cells in cell cycle phase: G1” value is 102% and 83%. In the data set on HeLa cells, the “% cells in cell cycle phase: G2/M” value is 103% and 120%; the “% cells in cell cycle phase: S” value was 92% and 122%; the “% cells in cell cycle phase: aneuploid” value was 109% and 133%. In data set [1], this substance displayed a Glut4 of 0.75, an HSL of 0.53, a PPAR gamma of 0.97 and a TG of 1.33. The aP2 in data set [1] is given as 0.92.

Consider “327925 (antisense eT*eA*eG*e[5mC]*eT*eG*eG*eT*eT*eG*eA*eA*eG*eG*eG*eG*eA*e[5mC]*e[5mC]*eA*eA) [compound 327925]”, for which, in the data set on preadipocytes, the “Fold Increase over UTC” value was 2.0 fold over UTC. In data set [1], this substance showed a Glut4 of 0.74, an HSL of 1.20, a PPAR gamma of 1.30 and a TG of 1.33. In addition, the aP2 in data set [1] is recorded as 0.78.

Turning to “327892 (antisense eA*e[5mC]*eT*eT*eT*e[5mC]*eG*eG*eT*eT*eA*eT*e[5mC]*eT*eA*eG*e[5mC]*eT*eT*eT*eA) [compound 327892]”, in the data set on HeLa cells, the “% cells aneuploid” value was found to be 80%, the “% cells in cell cycle phase G1” value amounted to 86%, the “% cells in cell cycle phase G2/M” value is on record as 103% and the “% cells in cell cycle phase S” value came to 111%. In the data set with HeLa cells, the “% cells in cell cycle phase subG1” value was 153%, the “% cells in cell cycle phase: G1” value stood at 74%, the “% cells in cell cycle phase: G2/M” value was 129% and the “% cells in cell cycle phase: S” value is 150%. In the data set with HeLa cells, the “% cells in cell cycle phase: aneuploid” value stood at 79% and the “% cells in cell cycle phase: subG1” value is 121%. In data set [1], the Glut4 came to 0.42, the HSL is given as 0.62, the PPAR gamma worked out at 1.01 and the TG came to 1.23. The aP2 in data set [1] came out at 0.81.

Turning to “327931 (antisense eA*eA*e[5mC]*e[5mC]*eA*eT*eA*e[5mC]*eA*eA*e[5mC]*e[5mC]*eT*eA*e[5mC]*eT*eA*e[5mC]*e[5mC]*eT*e[5mC]*eA) [compound 327931]”, the “Fold Increase over UTC” value in the data set with preadipocytes amounted to 1.5 fold over UTC.

As for “327893 (antisense eA*eA*e[5mC]*e[5mC]*eA*e[5mC]*eA*e[5mC]*eA*eA*e[5mC]*e[5mC]*eT*eA*e[5mC]*eT*eA*e[5mC]*e[5mC]*eT*e[5mC]*eA) [compound 327893]”, the “Fold Increase over UTC” value in the data set on preadipocytes was 1.3 fold over UTC.

For the substance “327967 (antisense eA*e[5mC]*eT*eG*eT*eA*e[5mC]*eA*eA*eA*e[5mC]*eT*eA*e[5mC]*eT*eA*e[5mC]*e[5mC]*eT*e[5mC]*eA) [compound 327967]”, the “Fold Increase over UTC” value with preadipocytes turned out to be 1.5 fold over UTC.

As for “340927 (antisense eT*eG*eA*eG*e[5mC]*dT*dA*d[5mC]*dA*dG*dT*dG*d[5mC]*dT*dT*e[5mC]*eA*eT*e[5mC]*eT*e[5mC]*eA) [compound 340927]”, in the data set on HeLa cells, the “% cells aneuploid” value is 88% and 87%; the “% cells in cell cycle phase G1” value was 121% and 128%; the “% cells in cell cycle phase G2/M” value was 111% and 106%; the “% cells in cell cycle phase S” value is 75% and 71%. In the data set with HeLa cells, the “% cells in cell cycle phase subG1” value is 118% and 131%; the “% cells in cell cycle phase: G1” value is listed as 91%; the “% cells in cell cycle phase: G2/M” value is 121% and 122%; the “% cells in cell cycle phase: S” value came to 107%. Besides, in the data set with HeLa cells, the “% cells in cell cycle phase: aneuploid” value was 113% and 108%; the “% cells in cell cycle phase: subG1” value is 95% and 83%. Also, in data set [1], the Glut4 is given as 0.96, the HSL came to 0.64, the PPAR gamma came to 1.21 and the TG turned out to be 1.61. The substance also registered an aP2 in data set [1] of 0.71.

For the substance “327876 (antisense eA*eA*e[5mC]*eA*e[5mC]*eT*eG*eA*eT*eT*eT*e[5mC]*eA*eA*eA*eT*eG*eG*eT*eG*e[5mC]*eT*eA) [compound 327876]”, in the data set with HeLa cells, the “% cells aneuploid” value was 66% and 75%; the “% cells in cell cycle phase G1” value was 98% and 93%; the “% cells in cell cycle phase G2/M” value was 95% and 131%; the “% cells in cell cycle phase S” value is 104% and 92%. Also, in the data set with HeLa cells, the “% cells in cell cycle phase subG1” value is 103% and 149%; the “% cells in cell cycle phase: G1” value is 87% and 76%; the “% cells in cell cycle phase: G2/M” value is 119% and 126%; the “% cells in cell cycle phase: S” value is 120% and 141%. In addition, the “% cells in cell cycle phase: aneuploid” value in the data set on HeLa cells is 100% and 69%. In addition, in data set [1], the Glut4 was determined as 3.53, the HSL is 0.81, the PPAR gamma was 1.28 and the TG worked out at 1.16. This substance also registered an aP2 in data set [1] of 0.67.
